Assay results: PubChem BioAssay (NCI)
“And” between values parts separate entries of the source, which are not always exact repeats. Equal entries are not always repeated.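 Where inhibition never reached the appropriate level, the endpoint shown equals the highest concentration tested. Otherwise, values were interpolated linearly from a five-concentration, 48-hour dose response in 96-well plates. Abbreviation: GI50, concentration required for 50% inhibition of growth. The concentration for full growth arrest is given as TGI.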

Tests used:
Test in all cases: NCI tumour cell line growth inhibition, 48 h
[1] = system: OVCAR-5 ovarian
[2] = system: XF 498 CNS
[3] = system: MOLT-4 leukemia
[4] = system: RPMI-8226 leukemia
[5] = system: HCT-116 colon
[6] = system: UO-31 renal
[7] = system: A498 renal
[8] = system: SK-OV-3 ovarian
[9] = system: SNB-75 CNS
[10] = system: LOX IMVI melanoma
[11] = system: U251 CNS
[12] = system: CAKI-1 renal
[13] = system: A549 NSCLC
[14] = system: HCT-15 colon
[15] = system: ACHN renal
[16] = system: NCI-H460 lung
[17] = system: SW-620 colon
[18] = system: P388/ADR leukemia
[19] = system: HCC-2998 colon
[20] = system: UACC-62 melanoma
[21] = system: SNB-19 CNS
[22] = system: HOP-18 NSCLC
[23] = system: M19-MEL melanoma
[24] = system: M14 melanoma
[25] = system: SK-MEL-5 melanoma
[26] = system: UACC-257 melanoma
[27] = system: HOP-62 NSCLC
[28] = system: NCI-H23 lung
[29] = system: SF-295 CNS
[30] = system: OVCAR-8 ovarian
[31] = system: TK-10 renal
[32] = system: P388 leukemia
[33] = system: CCRF-CEM leukemia
[34] = system: HOP-92 NSCLC
[35] = system: OVCAR-3 ovarian
[36] = system: SK-MEL-28 melanoma
[37] = system: OVCAR-4 ovarian
[38] = system: SNB-78 CNS
[39] = system: IGROV1 ovarian
[40] = system: 786-0 renal
[41] = system: DLD-1 colon
[42] = system: DMS 114 small cell lung
[43] = system: HL-60(TB) leukemia
[44] = system: RXF 393 renal
[45] = system: LXFL 529 NSCLC
[46] = system: K-562 leukemia
[47] = system: SF-539 CNS
[48] = system: KM20L2 colon
[49] = system: MALME-3M melanoma
[50] = system: SN12C renal
[51] = system: COLO 205 colon
[52] = system: SF-268 CNS
[53] = system: NCI-H522 lung
[54] = system: HT29 colon
[55] = system: NCI-H226 lung

Compound: C=CC(=O)NC(N)=NC#N
- TGI [1]: 317 µM
- GI50 [2]: 157 µM
- TGI [2]: 313 µM
- GI50 [3]: 197 µM
- TGI [3]: 555 µM
- GI50 [4]: 91.6 µM
- TGI [4]: > 67.3 µM and 446 µM
- TGI [5]: 329 µM
- TGI [6]: 333 µM
- TGI [7]: 285 µM
- TGI [8]: 315 µM
- TGI [9]: 289 µM
- GI50 [10]: 129 µM
- TGI [10]: 273 µM
- TGI [11]: 296 µM
- GI50 [12]: 171 µM
- TGI [12]: 361 µM
- TGI [13]: 345 µM
- TGI [14]: 258 µM
- TGI [15]: 245 µM
- TGI [16]: 360 µM
- GI50 [17]: 160 µM
- TGI [17]: 314 µM
- TGI [18]: > 58 µM
- TGI [19]: 329 µM
- TGI [20]: 294 µM
- TGI [21]: 523 µM
- TGI [22]: 283 µM
- TGI [23]: 278 µM
- TGI [24]: 292 µM
- TGI [25]: 301 µM
- TGI [26]: 249 µM
- TGI [27]: 423 µM
- TGI [28]: 344 µM
- TGI [29]: 843 µM
- TGI [30]: 484 µM
- TGI [31]: 272 µM
- TGI [32]: > 43.5 µM
- GI50 [33]: 130 µM
- TGI [33]: > 66.1 µM and 317 µM
- GI50 [34]: 103 µM
- TGI [34]: > 63.7 µM and 252 µM
- TGI [35]: 310 µM
- TGI [36]: 261 µM
- TGI [37]: 304 µM
- TGI [38]: 399 µM
- TGI [39]: 330 µM
- TGI [40]: 300 µM
- TGI [41]: 311 µM
- TGI [42]: 250 µM
- GI50 [43]: 132 µM
- TGI [43]: > 66.3 µM and 327 µM
- GI50 [44]: 149 µM
- TGI [44]: 98.1 µM and 286 µM
- TGI [45]: 250 µM
- GI50 [46]: 136 µM
- TGI [46]: 445 µM
- TGI [47]: 303 µM
- TGI [48]: 287 µM
- TGI [49]: 303 µM
- TGI [50]: 293 µM
- TGI [51]: 280 µM
- TGI [52]: 260 µM
- GI50 [53]: 1.95 µM
- TGI [53]: 36.9 µM and 4.09 µM
- TGI [54]: 372 µM
- TGI [55]: 353 µM
